The values that follow come from patent US7419980B2, “Fused-aryl and heteroaryl derivatives and methods of their use” (Wyeth, priority 2003, dated 2008).

Counter-ions that a name gives are not always drawn. Like-named read-outs stand apart in the source and are kept apart here.

In this test the target is T1, human hNET (Homo sapiens, UniProt P23975).
T1 construct: expressed in transfected cells; host or cells: MDCK-Net6 (MDCK cells stably transfected with hNET)
The experiment in a line: Norepinephrine (NE) uptake assay in MDCK-Net6 cells. Type of test: cell-based. On the procedure: MDCK-Net6 cells, stably transfected with human hNET (Pacholczyk, T., R. D. Blakely, and S. G. Amara, Nature, 1991, 350(6316): p. 350-4) were cultured in growth medium containing high glucose DMEM (Gibco, Cat. No. 11995), 10% FBS (dialyzed, heat-inactivated, US Bio-Technologies, Lot FBD1129HI) and 500 μg/ml G418 (Gibco, Cat. No. 10131). Cells were plated at 300,000/T75 flask and cells were split twice weekly. The JAR cell line (human placental choriocarcinoma) was purchased from ATCC (Cat. No. HTB-144). The cells were cultured in growth medium containing RPMI 1640 (Gibco, Cat. No. 72400), 10% FBS (Irvine, Cat. No. 3000), 1% sodium pyruvate (Gibco, Cat. No. 1136) and 0.25% glucose. Cells were plated at 250,000 cells/T75 flask and split twice weekly. For all assays, cells were plated in Wallac 96-well sterile plates (PerkinElmer, Cat. No. 3983498).
On day 1, cells were plated at 3,000 cells/well in growth medium and maintained in a cell incubator (37° C., 5% CO2). On day 2, growth medium was replaced with 200 μl of assay buffer (25 mM HEPES; 120 mM NaCl; 5 mM KCl; 2.5 mM CaCl2; 1.2 mM MgSO4; 2 mg/ml glucose (pH 7.4, 37° C.)) containing 0.2 mg/ml ascorbic acid and 10 μM pargyline. Plates containing cells with 200 μl of assay buffer were equilibrated for 10 minutes at 37° C. prior to addition of compounds. A stock solution of desipramine was prepared in DMSO (10 mM) and delivered to triplicate wells containing cells for a final tert concentration of 1 μM. Data from these wells were used to define non-specific NE uptake (minimum NE uptake). Test compounds were prepared in DMSO (10 mM) and diluted in assay buffer according to tert range (1 to 10,000 nM). Twenty-five microliters of assay buffer (maximum NE uptake) or tert compound were added directly to triplicate wells containing cells in 200 μl of assay buffer. The cells in assay buffer with tert compounds were incubated for 20 minutes at 37° C. To initiate the NE uptake, [^3H]NE diluted in assay buffer (120 nM final assay concentration) was delivered in 25 μl aliquots to each well and the plates were incubated for 5 minutes (37° C.). The reaction was terminated by decanting the supernatant from the plate. The plates containing cells were washed twice with 200 μl assay buffer (37° C.) to remove free radioligand. The plates were then inverted, left to dry for 2 minutes, then reinverted and air-dried for an additional 10 minutes. The cells were lysed in 25 μl of 0.25 N NaOH solution (4° C.), placed on a shake table and vigorously shaken for 5 minutes. After cell lysis, 75 μl of scintillation cocktail was added to each well and the plates were sealed with film tape. The plates were returned to the shake table and vigorously shaken for a minimum of 10 minutes to ensure adequate partitioning of organic and aqueous solutions. The plates were counted in a Wallac Microbeta counter (PerkinElmer) to collect the raw cpm data.
For each experiment, a data stream of cpm values collected from the Wallac Microbeta counter was downloaded to a Microsoft Excel statistical application program. Calculations of EC50 values were made using the transformed-both-sides logistic dose response program written by Wyeth Biometrics Department. The statistical program uses mean cpm values from wells representing maximum binding or uptake (assay buffer) and mean cpm values from wells representing minimum binding or uptake ((1 μM desipramine (hNET) or 1 μM paroxetine (hSERT)). Estimation of the EC50 value was completed on a log scale and the line was fit between the maximum and minimum binding or uptake values. All graphic data representation was generated by normalizing each data point to a mean percent based on the maximum and minimum binding or uptake values. The EC50 values reported from multiple experiments were calculated by pooling the raw data from each experiment and analyzing the pooled data as one experiment.

[1] abbreviates: 1 μM test compound, [3H]NE uptake, MDCK-Net6 cells, read-out: % Inhibition @ 1 μM (hNET).

T1 sequence (P23975 whole entry): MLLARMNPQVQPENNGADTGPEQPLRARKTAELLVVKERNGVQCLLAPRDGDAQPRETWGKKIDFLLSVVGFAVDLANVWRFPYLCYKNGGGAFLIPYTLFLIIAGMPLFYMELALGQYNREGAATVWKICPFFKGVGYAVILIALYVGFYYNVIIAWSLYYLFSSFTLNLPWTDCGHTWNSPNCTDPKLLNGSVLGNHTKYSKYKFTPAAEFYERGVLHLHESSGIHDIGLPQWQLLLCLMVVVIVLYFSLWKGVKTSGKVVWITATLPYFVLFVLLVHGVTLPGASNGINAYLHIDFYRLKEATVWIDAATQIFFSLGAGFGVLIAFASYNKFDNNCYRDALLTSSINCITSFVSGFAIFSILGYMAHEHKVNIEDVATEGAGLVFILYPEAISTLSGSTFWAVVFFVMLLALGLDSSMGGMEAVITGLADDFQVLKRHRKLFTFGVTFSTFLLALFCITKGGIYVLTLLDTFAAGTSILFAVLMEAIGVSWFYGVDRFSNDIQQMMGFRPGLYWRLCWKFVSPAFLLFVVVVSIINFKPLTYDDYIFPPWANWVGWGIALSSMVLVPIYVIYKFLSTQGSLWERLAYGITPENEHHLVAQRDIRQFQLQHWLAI

By inhibition is commonly meant how much of the control response was suppressed. With `CN1CCN(C[C@H](c2csc(Cl)c2)C2(O)CCCCC2)CC1` [Example 259, 1-[(1S)-1-(5-chlorothien-3-yl)-2-(4-methylpiperazin-1-yl)ethyl]cyclohexanol Dihydrochloride], the inhibition at 1 µM (MDCK-Net6, read-out: % Inhibition @ 1 μM (hNET)) amounted to 20%.

On to `OC1(C(CN2CCNCC2)c2csc3ccc(Cl)cc23)CCCCC1` (stereo not shown) [Example 260, 1-[1-(5-chloro-1-benzothien-3-yl)-2-piperazin-1-ylethyl]cyclohexanol Dihydrochloride], for which the inhibition at 1 µM under setting [1] was determined as 75%.

Take `OC1(C(CN2CCNCC2)c2cc3ccccc3s2)CCCCC1` (stereo not shown) [Example 261, 1-[1-(1-benzothien-2-yl)-2-piperazin-1-ylethyl]cyclohexanoldihydrochloride]: the inhibition at 1 µM under setting [1] came out at 60%.

Regarding `OC1(C(CN2CCNCC2)c2cnc3ccccc3c2)CCCCC1` (stereo not shown) [Example 262, 1-(2-piperazin-1-yl-1-quinolin-3-ylethyl)cyclohexanol Dihydrochloride], the inhibition at 1 µM under setting [1] came out at 19%.

For `OC1(C(CN2CCNCC2)c2cccc3ccccc23)CCCCCCC1` (stereo not shown) [Example 269, 1-[1-(1-naphthyl)-2-piperazin-1-ylethyl]cyclooctanol Dihydrochloride], the inhibition at 1 µM under setting [1] was 41%.

In the case of `CN1CCN(CC(c2cccc3ccccc23)C2(O)CCCCCCC2)CC1` (stereo not shown) [Example 270, 1-[2-(4-methylpiperazin-1-yl-1-(1-naphthyl)ethyl]cyclooctanol Dihydrochloride], the inhibition at 1 µM under setting [1] stood at 13%.

In the case of `OC1(C(CN2CCNCC2)c2cccc3ccccc23)CCCCCC1` (stereo not shown) [Example 271, 1-[1-(1-naphthyl)-2-piperazin-1-ylethyl]cycloheptanol Dihydrochloride], the inhibition at 1 µM under setting [1] was determined as 27%.

With `CN1CCN(CC(c2cccc3ccccc23)C2(O)CCCCCC2)CC1` (stereo not shown) [Example 272, 1-[2-(4-methylpiperazin-1-yl)-1-(1-naphthyl)ethyl]cycloheptanol Dihydrochloride], under setting [1], the inhibition at 1 µM is 44%.

For `COc1ccc2scc(C(CN3CCNCC3)C3(O)CCCCC3)c2c1` (stereo not shown) [Example 279, 1-[1-(5-methoxy-1-benzothien-3-yl)-2-piperazin-1-ylethyl]cyclohexanol Dihydrochloride], the inhibition at 1 µM under setting [1] worked out at 16%.

With `OC1(C(CN2CCNCC2)c2cc(Br)cs2)CCCCC1` (stereo not shown) [Example 281, 1-[1-(4-bromothien-2-yl)-2-piperazin-1-ylethyl]cyclohexanol Dihydrochloride], under setting [1], the inhibition at 1 µM came to 91%.

Take `CCC1CCC(O)(C(CN2CCN(C)CC2)c2cccc3ccccc23)CC1` (stereo not shown) [Example 328, 4-ethyl-1-[2-(4-methylpiperazin-1-yl)-1-(1-naphthyl)ethyl]cyclohexanol Dihydrochloride]: under setting [1], the inhibition at 1 µM came out at 5.1%.

Regarding `CC1CCC(O)(C(CN2CCN(C)CC2)c2cccc3ccccc23)CC1` (stereo not shown) [Example 333, 4-methyl-1-[2-(4-methylpiperazin-1-yl)-1-(1-naphthyl)ethyl]cyclohexanol Dihydrochloride], under setting [1], the inhibition at 1 µM is 16%.

Take `OC1(C(CN2CCNCC2)c2cccnc2)CCCCC1` (stereo not shown) [Example 337, 1-(2-piperazin-1-yl-1-pyridin-3-ylethyl)cyclohexanol Trihydrochloride]: under setting [1], the inhibition at 1 µM was found to be 4.8%.
